Data from the supplement of paper PMC7017272.
± gives the standard deviation of the averaged measurements.

Legend:
Conditions in all cases: treatment time: 3 days
UT-SCC-24A [1] = assay: drug sensitivity score (DSS); higher = more sensitive
Protocol: (§1)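 HNSCC cell lines (500 cells/well, 384-well) were cultured on plastic, on top of (2D) or embedded (3D) in Matrigel or human leiomyoma matrix Myogel (500 ug/mL; Myogel 3D mixed with rat collagen I). Cells were treated for 3 days with 5 ten-fold concentrations of each drug, and viability was read by CellTiter-Glo. Suffixes _1/_2/_3 on drug names are replicates.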

UT-SCC-24A [2] = assay: maximal % inhibition of viability relative to DMSO; higher = stronger effect
Protocol: as §1, with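 “CellTiter-Glo. Viability was normalised to DMSO (0% inhibition) and 100 uM benzethonium chloride (100% inhibition) controls and fitted with the FIMM DSRT pipeline to give IC50 (nM), maximal % inhibition and the drug sensitivity score (DSS).” for “CellTiter-Glo.”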

UT-SCC-106A [3] = assay: drug sensitivity score (DSS); higher = more sensitive; extreme values may be limits of the assay
How it was run: (§2)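 Viability was read with CellTiter-Glo 2.0 luminescence and scaled against vehicle (0.1% DMSO) and cell-killing control wells. The assay used HPV-negative HNSCC cell lines at 500 cells/well in 384-well plates, grown on plastic, on Matrigel or Myogel coatings (500 µg/mL), or embedded in Matrigel or Myogel plus rat collagen I, and treated for 3 days at five 10-fold concentrations. IC50, maximal inhibition and drug sensitivity score were derived from percent-inhibition dose–response curves fitted in the FIMM pipeline.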

UT-SCC-14 = assay: as above
How it was run: as §2

UT-SCC-24B = assay: as above
How it was run: as §2

UT-SCC-28 = assay: as above
How it was run: as §2

UT-SCC-40 [4] = assay: as above
How it was run: as §2

UT-SCC-42A = assay: as above
How it was run: as §2

UT-SCC-42B [5] = assay: as above
How it was run: as §2

UT-SCC-44 [6] = assay: as above
How it was run: as §2

UT-SCC-73 [7] = assay: as above
How it was run: as §2

UT-SCC-81 = assay: as above
How it was run: as §2

UT-SCC-8 = assay: as above
How it was run: as §2

UT-SCC-106A [8] = assay: relative IC50 (midpoint of the fitted curve; maximal inhibition may be below 50%); higher = less potent
How it was run: as §2

UT-SCC-40 [9] = assay: as above
How it was run: as §2

UT-SCC-42B [10] = assay: as above
How it was run: as §2

UT-SCC-44 [11] = assay: as above
How it was run: as §2

UT-SCC-73 [12] = assay: as above
How it was run: as §2

UT-SCC-24A [13] = assay: relative IC50 (midpoint of the fitted curve; maximal inhibition may be below 50%); higher = less potent
Protocol: as §1, with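 “CellTiter-Glo. Viability was normalised to DMSO (0% inhibition) and 100 uM benzethonium chloride (100% inhibition) controls and fitted with the FIMM DSRT pipeline to give IC50 (nM), maximal % inhibition and the drug sensitivity score (DSS).” for “CellTiter-Glo.”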

[14] = culture condition: embedded in Matrigel
[15] = culture condition: embedded in Myogel + collagen I
[16] = culture condition: on top of Matrigel
[17] = culture condition: on top of Myogel
[18] = culture condition: plastic 2D (no matrix)

## Cn1cnc2c(F)c(Nc3ccc(Br)cc3Cl)c(C(=O)NOCCO)cc21 [Selumetinib]
UT-SCC-24A [1]; [14]
  drug sensitivity score: 20.7 ± 4.2 DSS
UT-SCC-24A [1]; [15]
  drug sensitivity score: 16.4 ± 1.8 DSS
UT-SCC-24A [1]; [16]
  drug sensitivity score: 19.4 ± 3.9 DSS
UT-SCC-24A [1]; [17]
  drug sensitivity score: 8.63 ± 1.6 DSS
UT-SCC-24A [1]; [18]
  drug sensitivity score: 17.9 ± 3.7 DSS
UT-SCC-24A [2]; [14]
  maximal % inhibition of viability: 81.7 ± 2.1%
UT-SCC-24A [2]; [15]
  maximal % inhibition of viability: 59.2 ± 2.4%
UT-SCC-24A [2]; [16]
  maximal % inhibition of viability: 76.7 ± 1.4%
UT-SCC-24A [2]; [17]
  maximal % inhibition of viability: 38.4 ± 3%
UT-SCC-24A [2]; [18]
  maximal % inhibition of viability: 70.2 ± 7.2%
UT-SCC-106A [3]; [14]
  drug sensitivity score: 14.6 ± 2 DSS
UT-SCC-106A [3]; [15]
  drug sensitivity score: 0.867 ± 1.5 DSS
UT-SCC-106A [3]; [16]
  drug sensitivity score: 16.1 ± 0.75 DSS
UT-SCC-106A [3]; [17]
  drug sensitivity score: 1.03 ± 1.7 DSS
UT-SCC-106A [3]; [18]
  drug sensitivity score: 15.7 ± 2.3 DSS
UT-SCC-14; [14]
  drug sensitivity score: 7.13 ± 6.1 DSS
UT-SCC-14; [15]
  drug sensitivity score: 5.17 ± 3.2 DSS
UT-SCC-14; [16]
  drug sensitivity score: 7.17 ± 3 DSS
UT-SCC-14; [17]
  drug sensitivity score: 3.5 ± 3.6 DSS
UT-SCC-14; [18]
  drug sensitivity score: 0.833 ± 1.4 DSS
UT-SCC-24B; [14]
  drug sensitivity score: 18.9 ± 1.8 DSS
UT-SCC-24B; [15]
  drug sensitivity score: 18.2 ± 1.7 DSS
UT-SCC-24B; [16]
  drug sensitivity score: 18.6 ± 0.25 DSS
UT-SCC-24B; [17]
  drug sensitivity score: 17.6 ± 0.75 DSS
UT-SCC-24B; [18]
  drug sensitivity score: 21 ± 0.4 DSS
UT-SCC-28; [14]
  drug sensitivity score: 8.07 ± 4.3 DSS
UT-SCC-28; [15]
  drug sensitivity score: 4.4 ± 3.9 DSS
UT-SCC-28; [16]
  drug sensitivity score: 6.2 ± 5.5 DSS
UT-SCC-28; [18]
  drug sensitivity score: 3.8 ± 3.9 DSS
UT-SCC-40 [4]; [14]
  drug sensitivity score: 22.6 ± 0.71 DSS
UT-SCC-40 [4]; [15]
  drug sensitivity score: 17.6 ± 0.8 DSS
UT-SCC-40 [4]; [16]
  drug sensitivity score: 20.7 ± 0.92 DSS
UT-SCC-40 [4]; [17]
  drug sensitivity score: 11.2 ± 2.4 DSS
UT-SCC-40 [4]; [18]
  drug sensitivity score: 12.6 ± 2.5 DSS
UT-SCC-42A; [14]
  drug sensitivity score: 10.9 ± 4.8 DSS
UT-SCC-42A; [15]
  drug sensitivity score: 4.23 ± 4.5 DSS
UT-SCC-42A; [16]
  drug sensitivity score: 14.4 ± 5 DSS
UT-SCC-42A; [17]
  drug sensitivity score: 9.23 ± 2 DSS
UT-SCC-42A; [18]
  drug sensitivity score: 10.8 ± 3 DSS
UT-SCC-42B [5]; [14]
  drug sensitivity score: 16.5 ± 4.6 DSS
UT-SCC-42B [5]; [16]
  drug sensitivity score: 8.67 ± 2.3 DSS
UT-SCC-42B [5]; [17]
  drug sensitivity score: 2.13 ± 0.76 DSS
UT-SCC-42B [5]; [18]
  drug sensitivity score: 2.33 ± 2 DSS
UT-SCC-44 [6]; [14]
  drug sensitivity score: 15.8 ± 5.2 DSS
UT-SCC-44 [6]; [15]
  drug sensitivity score: 4.83 ± 4.2 DSS
UT-SCC-44 [6]; [16]
  drug sensitivity score: 12.3 ± 0.94 DSS
UT-SCC-44 [6]; [17]
  drug sensitivity score: 8.17 ± 1.2 DSS
UT-SCC-44 [6]; [18]
  drug sensitivity score: 7.8 ± 3.5 DSS
UT-SCC-73 [7]; [14]
  drug sensitivity score: 21 ± 2.8 DSS
UT-SCC-73 [7]; [15]
  drug sensitivity score: 13.5 ± 3.5 DSS
UT-SCC-73 [7]; [16]
  drug sensitivity score: 20.2 ± 2.6 DSS
UT-SCC-73 [7]; [17]
  drug sensitivity score: 15.2 ± 1.1 DSS
UT-SCC-73 [7]; [18]
  drug sensitivity score: 17.9 ± 1.4 DSS
UT-SCC-81; [14]
  drug sensitivity score: 24.4 ± 0.94 DSS
UT-SCC-81; [15]
  drug sensitivity score: 7.33 ± 6.3 DSS
UT-SCC-81; [16]
  drug sensitivity score: 19.9 ± 0.72 DSS
UT-SCC-81; [17]
  drug sensitivity score: 9.93 ± 3.6 DSS
UT-SCC-81; [18]
  drug sensitivity score: 7.87 ± 8 DSS
UT-SCC-8; [14]
  drug sensitivity score: 10.1 ± 1.3 DSS
UT-SCC-8; [15]
  drug sensitivity score: 1.37 ± 2.4 DSS
UT-SCC-8; [16]
  drug sensitivity score: 9.63 ± 0.58 DSS
UT-SCC-8; [17]
  drug sensitivity score: 10.3 ± 1.5 DSS
UT-SCC-8; [18]
  drug sensitivity score: 5.63 ± 2.3 DSS
UT-SCC-106A [8]; [14]
  relative IC50: 56.8 nM
UT-SCC-106A [8]; [18]
  relative IC50: 56.3 nM
UT-SCC-40 [9]; [14]
  relative IC50: 50.9 nM
UT-SCC-40 [9]; [15]
  relative IC50: 41.5 nM
UT-SCC-40 [9]; [16]
  relative IC50: 61 nM
UT-SCC-42B [10]; [14]
  relative IC50: 86.8 nM
UT-SCC-42B [10]; [16]
  relative IC50: 266 nM
UT-SCC-42B [10]; [17]
  relative IC50: 268 nM
UT-SCC-44 [11]; [14]
  relative IC50: 95.2 nM
UT-SCC-44 [11]; [16]
  relative IC50: 108 nM
UT-SCC-44 [11]; [17]
  relative IC50: 151 nM
UT-SCC-73 [12]; [14]
  relative IC50: 80 nM
UT-SCC-73 [12]; [15]
  relative IC50: 78.3 nM
UT-SCC-73 [12]; [16]
  relative IC50: 83.2 nM
UT-SCC-73 [12]; [17]
  relative IC50: 122 nM
UT-SCC-73 [12]; [18]
  relative IC50: 117 nM
UT-SCC-24A [13]; [17]
  relative IC50: 137 nM
UT-SCC-24A [13]; [18]
  relative IC50: 87.9 nM
